Here are results for 25 compounds from patent US7094869B2, “Low molecular weight peptidomimetic growth hormone secretagogues” (Genentech, Inc., priority 1994, dated 2006).

The target of one experiment is rat pituitary cells (Rattus norvegicus, UniProt O08725). As to conditions: read-out: PIT Cell EC50, GH release, 15 min incubation. An outline of the steps: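 Primary rat anterior pituitary cells, cultured three days in DME low glucose/10% FBS, were washed, pre-incubated twice for 15 min, then challenged 15 min with test compounds (DMSO ≤0.1%) at 37 °C. Released GH was measured by two-site ELISA; EC50 came from 4-parameter fits, mean of three to four independent determinations.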

In the next experiment the test system is growth hormone secretion. As to the kind of experiment: GHRP induced growth hormone secretion, intravenous administration (Rat IV). Format: in vivo. As to conditions: iv injection, serum GH 10 min after injection. The procedure: Immature weanling female Sprague Dawley rats were purchased from Charles River Labs (Portage, […].) and group housed with water and food available ad libitum. When the rats were 24-30 days old (weighing 50-90 g) they were anesthetized with pentobarbitone (4 mg in 0.5 ml, approximately 60 mg/kg) given by intraperitoneal injection. The rats were then placed briefly on a heated pad, to distend their tail veins, and given an intravenous tail vein injection of the peptides 20 minutes after receiving the anesthetic. The intravenous injection was of 0.1 ml using a 1 ml syringe. The injections contained graded doses of peptides or the vehicle (vehicle for all peptides given intravenously was a buffer of 20 mM sodium acetate, 45 g/l mannitol, pH 5.0). Ten minutes after the intravenous injection blood was taken by cardiac puncture, using a 3 ml syringe, and the rats were then sacrificed.
The blood was then clotted on ice, centrifuged, serum decanted and frozen for subsequent analysis using the rat GH ELISA described elsewhere in the application. For the rat GH ELISA the serum was diluted 1:50 or 1:250, depending on the expected serum GH concentrations achieved, and assayed in duplicate.

The mark [1] stands for this setting: Table IV, formula III compounds.
Setting [2] is: Table III, formula IV compounds.

pEC50: −log10 of the molar value. Read-outs that look alike come from different tables or passages of the source. Starred links: 1 amine or outer side, 2 acyl side, 3 side chain; linkers in the order of their positions; H or OH if unused. Non-standard residues stand in square brackets, D forms with d. Residues, ends and D or L forms follow the SMILES beside them. ξ: configuration not given here. *: point of attachment. dPhe(4-Cl) = N[C@H](Cc1ccc(Cl)cc1)C(=O)O; 1Nal = N[C@@H](Cc1cccc2ccccc12)C(=O)O; d2Nal = N[C@H](Cc1ccc2ccccc2c1)C(=O)O; Ethylenediamine = C(CN[*:2])N[*:1]; ξ2Nal = NC(Cc1ccc2ccccc2c1)C(=O)O; αMeF = C[C@](N)(Cc1ccccc1)C(=O)O; β3hF = N[C@H](CC(=O)O)Cc1ccccc1; Phe(ol) = N[C@H](CO)Cc1ccccc1; Nle = CCCC[C@H](N)C(=O)O; Orn = NCCC[C@H](N)C(=O)O; Inp = O=C(O)C1CCNCC1; ξK = NCCCCC(N)C(=O)O; NHtBu = CC(C)(C)N*; βAla = NCCC(=O)O

rat pituitary cells, sequence (O08725 whole entry): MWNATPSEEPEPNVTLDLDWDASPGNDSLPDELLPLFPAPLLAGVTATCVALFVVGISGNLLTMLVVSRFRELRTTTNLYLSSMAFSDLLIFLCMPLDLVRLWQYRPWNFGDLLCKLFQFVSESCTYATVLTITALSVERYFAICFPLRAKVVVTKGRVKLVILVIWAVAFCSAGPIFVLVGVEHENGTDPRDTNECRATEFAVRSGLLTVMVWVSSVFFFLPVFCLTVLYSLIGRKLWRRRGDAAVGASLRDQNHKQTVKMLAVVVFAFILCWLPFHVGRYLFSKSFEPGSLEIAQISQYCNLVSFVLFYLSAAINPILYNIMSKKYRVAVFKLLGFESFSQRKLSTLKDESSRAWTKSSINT

What is called pEC50 is −log10 of the EC50, conventionally taken in molar units. On to `O=C(N[C@H](Cc1ccc2ccccc2c1)C(=O)N[C@H](Cc1ccc2ccccc2c1)C(=O)N[C@@H](Cc1ccccc1)C(=O)O)C1CCNCC1` [(inip) b b F acid, (inip)-DβNal-DβNal-Phe] (H-[Inp][d2Nal][d2Nal]F-OH), for which, on rat pituitary cells (setting [1]), the pEC50 was 9.70. Moreover, the “RAT IV ED50” value in the experiment on growth hormone secretion (Table IV) came out at 2 µg.

Take `NC(=O)CCNC(=O)[C@H](Cc1ccccc1)NC(=O)[C@@H](Cc1ccc2ccccc2c1)NC(=O)[C@@H](Cc1ccc2ccccc2c1)NC(=O)C1CCNCC1` [(inip) b b F bA amide] (H-[Inp][d2Nal][d2Nal]F[βAla]-NH2): the pEC50 on rat pituitary cells (setting [2]) is 9.70. For the same compound, in the experiment with growth hormone secretion (Table III), the “RAT IV ED50” value was 2 µg.

Regarding `CNC(=O)[C@H](Cc1ccccc1)NC(=O)[C@@H](Cc1ccc2ccccc2c1)NC(=O)[C@@H](Cc1ccc2ccccc2c1)NC(=O)C1CCNCC1` [(inip) b b F mam] (H-[Inp][d2Nal][d2Nal]F-NHMe), at rat pituitary cells (setting [2]), the pEC50 is 8.70. Also, in the experiment on growth hormone secretion (Table III), the “RAT IV ED50” value is 2 µg.

In the case of `CC(C)(C)NC(=O)[C@H](Cc1ccccc1)NC(=O)[C@@H](Cc1ccc2ccccc2c1)NC(=O)[C@@H](Cc1ccc2ccccc2c1)NC(=O)C1CCNCC1` [(inip) b b F tbm] (H-[Inp][d2Nal][d2Nal]F-NHtBu), the pEC50 at rat pituitary cells (setting [2]) is 8.00. Besides, the “RAT IV ED50” value with growth hormone secretion (Table III) is 10 µg.

For `NCCC[C@H](NC(=O)[C@@H](Cc1ccc2ccccc2c1)NC(=O)[C@@H](Cc1ccc2ccccc2c1)NC(=O)C1CCNCC1)C(N)=O` [(inip) b b O amide] (H-[Inp][d2Nal][d2Nal][Orn]-NH2), on rat pituitary cells (setting [1]), the pEC50 was 8.23. The “RAT IV ED50” value with growth hormone secretion (Table IV) was 1 µg.

For `NC(=O)[C@@H]1CCCN1C(=O)[C@@H](Cc1ccc2ccccc2c1)NC(=O)[C@@H](Cc1ccc2ccccc2c1)NC(=O)C1CCNCC1` [(inip) b b P amide] (H-[Inp][d2Nal][d2Nal]P-NH2), the negative-log EC50 (pEC50) on rat pituitary cells (setting [1]) is 8.05. In the experiment with growth hormone secretion (Table IV), the “RAT IV ED50” value was 5 µg.

`O=C(N[C@H](Cc1ccc2ccccc2c1)C(=O)N[C@H](Cc1ccc2ccccc2c1)C(=O)N[C@H](CO)Cc1ccccc1)C1CCNCC1` [(inip) b b Pol, (inip)-DβNal-DβNal-(L-Phenylalanol)] (H-[Inp][d2Nal][d2Nal][Phe(ol)]): on rat pituitary cells (setting [1]), the pEC50 was 9.70. In addition, the “RAT IV ED50” value in the experiment on growth hormone secretion (Table IV) was found to be 5 µg.

On to `O=C(N[C@H](Cc1ccc2ccccc2c1)C(=O)N[C@H](Cc1ccc2ccccc2c1)C(=O)N[C@@H](Cc1ccc(O)cc1)C(=O)O)C1CCNCC1` [(inip) b b Y acid] (H-[Inp][d2Nal][d2Nal]Y-OH), for which the pEC50 at rat pituitary cells (setting [1]) was 8.30. Also, the “RAT IV ED50” value in the experiment on growth hormone secretion (Table IV) was 10 µg.

For the compound `C[C@@](Cc1ccccc1)(NC(=O)[C@@H](Cc1ccc2ccccc2c1)NC(=O)[C@@H](Cc1ccc2ccccc2c1)NC(=O)C1CCNCC1)C(N)=O` [(inip) b b amF amide] (H-[Inp][d2Nal][d2Nal][αMeF]-NH2), the pEC50 on rat pituitary cells (setting [1]) is 9.30. Further, in the experiment with growth hormone secretion (Table IV), the “RAT IV ED50” value amounted to 5 µg.

Consider `O=C(N[C@H](Cc1ccc2ccccc2c1)C(=O)N[C@H](Cc1ccc2ccccc2c1)C(=O)NC1CCNCC1)C1CCNCC1` [(inip) b b api], for which the negative-log EC50 (pEC50) at rat pituitary cells (setting [1]) was 8.57. Besides, in the experiment with growth hormone secretion (Table IV), the “RAT IV ED50” value was 25 µg.

Consider `NC(=O)CCNC(=O)[C@@H](Cc1ccc2ccccc2c1)NC(=O)[C@@H](Cc1ccc2ccccc2c1)NC(=O)C1CCNCC1` [(inip) b b bA amide] (H-[Inp][d2Nal][d2Nal][βAla]-NH2), for which the pEC50 on rat pituitary cells (setting [1]) is 8.00. The “RAT IV ED50” value in the experiment with growth hormone secretion (Table IV) is 10 µg.

As for `NCCCCNC(=O)[C@@H](Cc1ccc2ccccc2c1)NC(=O)[C@@H](Cc1ccc2ccccc2c1)NC(=O)C1CCNCC1` [(inip) b b bam, (inip)-DβNal-DβNal-[N-(4-aminobutyl)] amide], on rat pituitary cells (setting [1]), the pEC50 was 7.73. Also, the “RAT IV ED50” value in the experiment with growth hormone secretion (Table IV) is 3.3 µg.

Take `N[C@H]1CC[C@H](NC(=O)[C@@H](Cc2ccc3ccccc3c2)NC(=O)[C@@H](Cc2ccc3ccccc3c2)NC(=O)C2CCNCC2)CC1` [(inip) b b cxa]: the negative-log EC50 (pEC50) at rat pituitary cells (setting [1]) is 7.85. The “RAT IV ED50” value in the experiment with growth hormone secretion (Table IV) worked out at 10 µg.

As to `NC(=O)[C@@H](Cc1ccccc1)NC(=O)[C@@H](Cc1ccc2ccccc2c1)NC(=O)[C@@H](Cc1ccc2ccccc2c1)NC(=O)C1CCNCC1` [(inip) b b f amide] (H-[Inp][d2Nal][d2Nal][dF]-NH2), at rat pituitary cells (setting [1]), the pEC50 is 9.22. For the same compound, in the experiment with growth hormone secretion (Table IV), the “RAT IV ED50” value was 20 µg.

As to `NCCCCN(CCc1ccccc1)C(=O)[C@@H](Cc1ccc2ccccc2c1)NC(=O)[C@@H](Cc1ccc2ccccc2c1)NC(=O)C1CCNCC1` [(inip) b b fbd, (inip)-DβNal-DβNal-[N-(2-phenylethyl), N-(4-aminobutyl)] amide], at rat pituitary cells (setting [1]), the negative logarithm of the EC50 (pEC50) is 9.05. The “RAT IV ED50” value in the experiment with growth hormone secretion (Table IV) turned out to be 0.67 µg.

`NC(=O)CCN(CCc1ccccc1)C(=O)[C@@H](Cc1ccc2ccccc2c1)NC(=O)[C@@H](Cc1ccc2ccccc2c1)NC(=O)C1CCNCC1` [(inip) b b feb amide]: on rat pituitary cells (setting [1]), the pEC50 is 9.52. The “RAT IV ED50” value in the experiment with growth hormone secretion (Table IV) worked out at 0.67 µg.

For `NC(=O)C[C@H](Cc1ccccc1)NC(=O)[C@@H](Cc1ccc2ccccc2c1)NC(=O)[C@@H](Cc1ccc2ccccc2c1)NC(=O)C1CCNCC1` [(inip) b b hcF amide, (inip)-DβNal-DβNal-(3(S)-3-benzyl-β-Ala)-amide] (H-[Inp][d2Nal][d2Nal][β3hF]-NH2), on rat pituitary cells (setting [1]), the pEC50 was 9.70. Besides, the “RAT IV ED50” value in the experiment with growth hormone secretion (Table IV) was 2.5 µg.

`CCCC[C@H](NC(=O)[C@@H](Cc1ccc2ccccc2c1)NC(=O)[C@@H](Cc1ccc2ccccc2c1)NC(=O)C1CCNCC1)C(N)=O` [(inip) b b nL amide] (H-[Inp][d2Nal][d2Nal][Nle]-NH2): the pEC50 at rat pituitary cells (setting [1]) was 8.37. Besides, the “RAT IV ED50” value with growth hormone secretion (Table IV) stood at 3.3 µg.

As for `NCCCCC(NC(=O)[C@H](Cc1cccc2ccccc12)NC(=O)[C@@H](Cc1ccc2ccccc2c1)NC(=O)C(Cc1ccc2ccccc2c1)NC(=O)C1CCNCC1)C(N)=O` (stereo partly drawn) [(inip) b b npA K amide, (inip)-DβNal-DβNal-αNal-Lys-amide] (H-[Inp][ξ2Nal][d2Nal][1Nal][ξK]-NH2), the negative logarithm of the EC50 (pEC50) on rat pituitary cells (setting [2]) was 10.00. Moreover, the “RAT IV ED50” value with growth hormone secretion (Table III) came out at 1 µg.

For `NC(=O)[C@H](Cc1cccc2ccccc12)NC(=O)[C@@H](Cc1ccc2ccccc2c1)NC(=O)[C@@H](Cc1ccc2ccccc2c1)NC(=O)C1CCNCC1` [(inip) b b npA amide] (H-[Inp][d2Nal][d2Nal][1Nal]-NH2), the negative-log EC50 (pEC50) on rat pituitary cells (setting [1]) is 9.70. In the experiment with growth hormone secretion (Table IV), the “RAT IV ED50” value was found to be 5 µg.

As to `O=C(N[C@H](Cc1ccc2ccccc2c1)C(=O)N[C@H](Cc1ccc2ccccc2c1)C(=O)N1CCNCC1)C1CCNCC1` [(inip) b b ppz], the pEC50 on rat pituitary cells (setting [1]) was 8.00. Besides, the “RAT IV ED50” value in the experiment with growth hormone secretion (Table IV) came out at 10 µg.

Regarding `NCCCNC(=O)[C@@H](Cc1ccc2ccccc2c1)NC(=O)[C@@H](Cc1ccc2ccccc2c1)NC(=O)C1CCNCC1` [(inip) b b ram], the pEC50 on rat pituitary cells (setting [1]) was 7.80. The “RAT IV ED50” value in the experiment with growth hormone secretion (Table IV) is 5 µg.

With `NCCNC(=O)[C@@H](Cc1ccc2ccccc2c1)NC(=O)[C@@H](Cc1ccc2ccccc2c1)NC(=O)C1CCNCC1` [(inip) b b tam] (H-[Inp]-[d2Nal]-[d2Nal]-Ethylenediamine), on rat pituitary cells (setting [1]), the pEC50 was 7.96. The “RAT IV ED50” value with growth hormone secretion (Table IV) is 20 µg.

Consider `O=C(N[C@H](Cc1ccc2ccccc2c1)C(=O)N[C@@H](CO)Cc1ccc2ccccc2c1)C1CCNCC1` [(inip) b bol], for which the pEC50 at rat pituitary cells (Table V, formula II compounds) is 8.70. In addition, the “RAT IV ED50” value in the experiment on growth hormone secretion (Table V) is 10 µg.

Take `NC(=O)[C@H](Cc1ccccc1)NC(=O)[C@@H](Cc1ccc(Cl)cc1)NC(=O)[C@@H](Cc1ccc2ccccc2c1)NC(=O)C1CCNCC1` [(inip) b chf F amide] (H-[Inp][d2Nal][dPhe(4-Cl)]F-NH2): the pEC50 on rat pituitary cells (setting [1]) was 8.57. In addition, in the experiment on growth hormone secretion (Table IV), the “RAT IV ED50” value came to 5 µg.
